Measurements from patent US20190276871A1, “Antimicrobial Cartridges and Processes for Antimicrobial Susceptibility Testing” (SeLux Diagnostics, Inc., priority 2017, published 2019).
Values after ≈ are worked out from the molar mass of the structure shown. Like-named read-outs stand apart in the source and are kept apart here.

How the values were obtained:
[1] = test system: patient sample microbes; assay: Standard 96-well AST assay plate, antimicrobial panel 1; type: cell-based
Text: (§1) Shown in Table 5 and Table 6, MIC results for antimicrobial panels 1 and 2 respectively using a master cartridge format and a 384 well patient cartridge (column 3) agrees reliably with that run by standard 96 well AST assay plate (right hand column).

[2] = MIC, antimicrobial panel 1; cited from earlier work
[3] = test system: patient sample microbes; assay: AST on 384-well patient cartridge panel made from Master Plate, antimicrobial panel 1; type: cell-based; settings: master cartridge format
Text: (§2) An assay setup comprises preparation of patient (target) cartridge by dispensing antimicrobials were from the master cartridge or intermediate serial dilution cartridges into one or more 384 reservoir patient cartridge, each antimicrobial in about 7 serial dilutions in triplicate, and covering the dynamic range of each antimicrobial that is known to be effective and therefore should be reported. The dilution range included the expected minimum inhibitory concentration (MIC) for each antimicrobial. But most importantly, dilution ranges, that is, antimicrobial concentrations beyond the range known to be effective are included in the patient cartridge as per the present invention.
(§3) The remaining reservoirs of the 384 well patient cartridge are utilized for setting up test controls: a no-antimicrobial control (negative control) was included for each antimicrobial compound; and a positive control was included for each antimicrobial set, where a microorganism that is not susceptible to the antimicrobial was added to the well. Each control set was also dispensed at least in duplicate per 384 well cartridge. Additional test controls may be included as deemed necessary by one of skill in the art. Equal amount of a patient sample was dispensed to each of the wells in the cartridge, except in the wells designated for no-sample control, if included. The patient cartridge was ready for determination of susceptibility of microbes from the patient sample to the twelve antimicrobials at the range of concentrations applied, simultaneously. Multiple such plates can be set up in parallel for testing samples from multiple patients, each patient sample per plate. An AST assay was performed on the prepared patient cartridges.
as §1

[4] = MIC, antimicrobial panel 2; cited from earlier work
[5] = test system: patient sample microbes; assay: AST on 384-well patient cartridge panel made from Master Plate, antimicrobial panel 2; type: cell-based; set-up: unit not given here; settings: master cartridge format
Text: as §2, §3, §1

[6] = test system: patient sample microbes; assay: Standard 96-well AST assay plate, antimicrobial panel 2; type: cell-based; set-up: unit not given here
Text: as §1

[7] = test system: clinical isolate of S aureus; assay: Broth microdilution reference method; type: cell-based; settings: read-out: MICs obtained from the broth microdilution reference method
Experimental: The antibiotics shown are vancomycin, daptomycin, ceftaroline and levofloxacin, of which the MICs obtained from the broth microdilution reference method for this strain were 0.5, 0.25, 0.12, and 0.25 μg/ml, respectively. A clinical isolate of S aureus was used. Data represents the TRF signal in RFUs. Graphs in the top row contain data from 384-well plates. Graphs in the bottom row contain data from 96-well plates.

| Compound | MICs obtained from 96-well Antibiotic Panel [1] | Quality Control Range [2] | MICs obtained from panel made from Master Plate [3] | Quality Control Range [4] | MICs obtained from panel made from Master Plate [5] | MICs obtained from 96-well Antibiotic Panel [6] | MIC ([7]; clinical isolate of S aureus) [µg/mL] | MIC [7] [µg/mL] |
| --- | --- | --- | --- | --- | --- | --- | --- | --- |
| NCC[C@H](O)C(=O)N[C@@H]1C[C@H](N)[C@@H](O[C@H]2O[C@H](CN)[C@@H](O)[C@H](O)[C@H]2O)[C@H](O)[C@H]1O[C@H]1O[C@H](CO)[C@@H](O)[C@H](N)[C@H]1O [Amikacin] | 4 | 0.5-4 | 4 |  |  |  |  |  |
| CC1(C)S[C@@H]2[C@H](NC(=O)[C@H](N)c3ccccc3)C(=O)N2[C@H]1C(=O)O [Ampicillin] | 8 | 2-8 | 4 | 0.5-2 | 1 | 1 |  |  |
| CO/N=C(\C(=O)N[C@@H]1C(=O)N2C(C(=O)[O-])=C(C[N+]3(C)CCCC3)CS[C@H]12)c1csc(N)n1 [Cefepime] | ≤0.03 | 0.015-0.12 | ≤0.25 |  |  |  |  |  |
| CCO/N=C(\C(=O)N[C@@H]1C(=O)N2C(C(=O)[O-])=C(Sc3nc(-c4cc[n+](C)cc4)cs3)CS[C@H]12)c1nsc(N)n1 [Ceftaroline] |  |  |  |  | 0.5 | 0.25 | 0.12 (≈ 0.198 µM) |  |
| CC(C)(O/N=C(\C(=O)N[C@@H]1C(=O)N2C(C(=O)[O-])=C(C[n+]3ccccc3)CS[C@H]12)c1csc(N)n1)C(=O)O [Ceftazidime] | 0.25 | 0.06-0.5 | <1 | 4-16 | 4 | 8 |  |  |
| CO/N=C(\C(=O)N[C@@H]1C(=O)N2C(C(=O)O)=C(CSc3nc(=O)c(=O)[nH]n3C)CS[C@H]12)c1csc(N)n1 [Ceftriaxone] | ≤0.12 | 0.03-0.12 | ≤0.125 | 1-8 | 2 | 4 |  |  |
| C[C@H]1COc2c(N3CCN(C)CC3)c(F)cc3c(=O)c(C(=O)O)cn1c23 [Levofloxacin] | ≤0.06 |  | ≤0.25 |  | ≤0.25 | 0.25 | 0.25 (≈ 0.692 µM) |  |
| CC(=O)NC[C@H]1CN(c2ccc(N3CCOCC3)c(F)c2)C(=O)O1 [Linezolid] |  |  |  | 1-4 | 2 | 2 |  |  |
| Cc1onc(-c2ccccc2)c1C(=O)N[C@@H]1C(=O)N2[C@@H]1SC(C)(C)[C@@H]2C(=O)O [Oxacillin] |  |  |  | 0.12-0.5 | 0.5 | 0.5 |  |  |
| CO[C@H]1/C=C/O[C@@]2(C)Oc3c(C)c(O)c4c(O)c(c(/C=N/N5CCN(C)CC5)c(O)c4c3C2=O)NC(=O)/C(C)=C\C=C\[C@H](C)[C@H](O)[C@@H](C)[C@@H](O)[C@@H](C)[C@H](OC(C)=O)[C@@H]1C [Rifampin] |  |  |  | 0.004-0.015 | ≤0.25 | 0.004 |  |  |
| Cn1nnc(-c2ccc(-c3ccc(N4C[C@H](CO)OC4=O)cc3F)cn2)n1 [Tedizolid] |  |  |  | 0.25-1 | 0.25 | 0.5 |  |  |
| NC[C@H]1O[C@H](O[C@H]2[C@H](O)[C@@H](O[C@H]3O[C@H](CO)[C@@H](O)[C@H](N)[C@H]3O)[C@H](N)C[C@@H]2N)[C@H](N)C[C@@H]1O [Tobramycin] | 1 | 0.25-1 | 0.5 |  |  |  |  |  |
| CCCCCCCCCC(=O)N[C@@H](Cc1c[nH]c2ccccc12)C(=O)N[C@H](CC(N)=O)C(=O)N[C@@H](CC(=O)O)C(=O)N[C@@H]1C(=O)NCC(=O)N[C@@H](CCCN)C(=O)N[C@@H](CC(=O)O)C(=O)N[C@H](C)C(=O)N[C@@H](CC(=O)O)C(=O)NCC(=O)N[C@H](CO)C(=O)N[C@@H]([C@H](C)CC(=O)O)C(=O)N[C@@H](CC(=O)c2ccccc2N)C(=O)O[C@@H]1C [daptomycin] |  |  |  |  |  |  | 0.25 (≈ 0.154 µM) |  |
| CN[C@H](CC(C)C)C(=O)N[C@H]1C(=O)N[C@@H](CC(N)=O)C(=O)N[C@H]2C(=O)N[C@H]3C(=O)N[C@H](C(=O)N[C@H](C(=O)O)c4cc(O)cc(O)c4-c4cc3ccc4O)[C@H](O)c3ccc(c(Cl)c3)Oc3cc2cc(c3O[C@@H]2O[C@H](CO)[C@@H](O)[C@H](O)[C@H]2O[C@H]2C[C@](C)(N)[C@H](O)[C@H](C)O2)Oc2ccc(cc2Cl)[C@H]1O [vancomycin] |  |  |  |  |  |  |  | 0.5 (≈ 0.345 µM) |
| Ampicillin-Sulbactam | 8 µg/mL | 2-8 | 8 µg/mL |  |  |  |  |  |
| Piperacillin-tazobactam | 4 µg/mL | 1-4 | ≤ 1 µg/mL |  |  |  |  |  |
